# According to patent US20230157350A1, “DELIVERY SYSTEMS AND METHODS OF MAKING THE SAME” (British American Tobacco (Investments) Limited, priority 2020, published 2023):
# Assays:
# [1] = Smoking sensory evaluation of cigarettes by testers (1 to 10 scale, N=28); format: in vivo; settings: smoked cigarette
# Description: Test cigarettes were produced using the following amounts of WS-3 applied to the aerosol-generating material in the tobacco rod in the form of a solution:
# Various cigarettes were prepared and smoked so that the (1) menthol-family flavor intensity; (2) cooling sensation; and (3) tobacco taste intensity could each be evaluated by testers on a 1 to 10 scale (N=28).
# [2] = Sniffing Analysis of uncombusted tobacco, Quantitative Descriptive Profiling (ISO 13299)
# Description: Further samples were analyzed using “Sniffing Analysis”, an applied sensory method for the assessment of characterizing flavors of standard products, by sniffing the tobacco itself, without combusting it, using a method as provided in the international standard ISO 13299. The data is set out in Tables 4 and 5, showing the results of Quantitative Descriptive Profiling (QDP), providing a score of between 0 and 5 for perception of the different tobacco typical and non-tobacco typical flavor notes
# A critical intensity of a Mean >1.0 is highlighted in bold in Tables 4 and 5. On the 0-5 category scale, none of the prototype cigarette of “W53” or “WS23” show any critical intensity above 1.0 for the Non-Tobacco Typical Flavor Notes (see Table 5).
# [3] = Stability and migration in the delivery system; format: physicochemical
# Excerpt: The menthol in a pack of mentholated cigarettes, for example, is contained by an outer plastic packaging film. Within this packaging film, the menthol migrates and equilibrates. However, once this outer packaging film is removed (upon opening the pack for the first time), the menthol will begin to be lost. This migration and loss of the volatile menthol needs to be factored in when deciding how much menthol to include in each delivery system and where to apply it. It also means that the menthol delivery may vary depending on where the menthol is located when the delivery system is used.
# This means that greater significance is attached to the amount of WS-3 incorporated into the delivery system, as well as where and how it is incorporated.
# In some embodiments, the cooling agent WS-3 is present in the aerosol-generating material. In some embodiments, the cooling agent WS-3 is applied to the aerosol-generating material. As the delivery system is used, the WS-3 is volatilized and is entrained in the aerosol flow through the delivery system. […] This is despite the high temperatures seen in the rods of aerosol-generating material in combustible aerosol provision system, such as cigarettes. This is also despite the relatively low volatility of the WS-3 compared to some cooling agents used in delivery systems, such as menthol.
# Solubility in solvents = format: physicochemical
# [4] = Smoking sensory evaluation of cigarettes by testers (1 to 10 scale, N=28); format: in vivo; settings: 1 mg
compound,measurement,setting,value
CC1CCC(C(C)C)C(O)C1 (stereo not drawn) [Menthol],Cooling Sensation,[1]; 1.5 mg menthol (low),4.8
same,Menthol-Family Flavor Intensity,[1]; 1.5 mg menthol (low),4.1
same,Tobacco Taste Intensity,[1]; 1.5 mg menthol (low),3.1
same,Cooling Sensation,[1]; 3.5 mg menthol (medium),7.6
same,Menthol-Family Flavor Intensity,[1]; 3.5 mg menthol (medium),7.0
same,Tobacco Taste Intensity,[1]; 3.5 mg menthol (medium),2.1
same,Cooling Sensation,[1]; 5.0 mg menthol (high),8.8
same,Menthol-Family Flavor Intensity,[1]; 5.0 mg menthol (high),8.0
same,Tobacco Taste Intensity,[1]; 5.0 mg menthol (high),1.4
same,Non-Tobacco Typical Flavor Note: Alcoholic,"[2]; 4 mg, score 0-5",.1
same,Non-Tobacco Typical Flavor Note: Cacao,"[2]; 4 mg, score 0-5",.0
same,Non-Tobacco Typical Flavor Note: Caramel,"[2]; 4 mg, score 0-5",.1
same,Non-Tobacco Typical Flavor Note: Citrus,"[2]; 4 mg, score 0-5",.0
same,Non-Tobacco Typical Flavor Note: Floral,"[2]; 4 mg, score 0-5",.0
same,Non-Tobacco Typical Flavor Note: Fruity,"[2]; 4 mg, score 0-5",.0
same,Non-Tobacco Typical Flavor Note: Honey,"[2]; 4 mg, score 0-5",.1
same,Non-Tobacco Typical Flavor Note: Licorice,"[2]; 4 mg, score 0-5",.0
same,Non-Tobacco Typical Flavor Note: Minty,"[2]; 4 mg, score 0-5",.9
same,Non-Tobacco Typical Flavor Note: Spicy,"[2]; 4 mg, score 0-5",.0
same,Non-Tobacco Typical Flavor Note: Vanilla,"[2]; 4 mg, score 0-5",.1
same,Tobacco Typical Flavor Note: Animalic,"[2]; 4 mg, score 0-5",0.0
same,Tobacco Typical Flavor Note: Black Tea,"[2]; 4 mg, score 0-5",0.0
same,Tobacco Typical Flavor Note: Earthy,"[2]; 4 mg, score 0-5",0.0
same,Tobacco Typical Flavor Note: Haylike,"[2]; 4 mg, score 0-5",0.0
same,Tobacco Typical Flavor Note: Roasted,"[2]; 4 mg, score 0-5",0.1
same,Tobacco Typical Flavor Note: Smoky,"[2]; 4 mg, score 0-5",0.0
same,Tobacco Typical Flavor Note: Tobacco,"[2]; 4 mg, score 0-5",0.6
same,Tobacco Typical Flavor Note: Woody,"[2]; 4 mg, score 0-5",0.1
same,Non-Tobacco Typical Flavor Note: Minty,"[2]; 4 mg, score 0-5, listed as menthol",4.9
same,Migration within the delivery system or packaging during storage,[3],highly volatile and migrates
"CCNC(=O)C1CC(C)CCC1C(C)C (stereo not drawn) [WS-3, N-ethyl-2-(isopropyl)-5-methylcyclohexane carboxamide]",Cooling Sensation,[1]; 1.0 mg cooling agent,significant higher than both control products
same,Non-Tobacco Typical Flavor Note: Alcoholic,"[2]; 1 mg, score 0-5",.0
same,Non-Tobacco Typical Flavor Note: Cacao,"[2]; 1 mg, score 0-5",.2
same,Non-Tobacco Typical Flavor Note: Caramel,"[2]; 1 mg, score 0-5",.1
same,Non-Tobacco Typical Flavor Note: Citrus,"[2]; 1 mg, score 0-5",.0
same,Non-Tobacco Typical Flavor Note: Floral,"[2]; 1 mg, score 0-5",.0
same,Non-Tobacco Typical Flavor Note: Fruity,"[2]; 1 mg, score 0-5",.1
same,Non-Tobacco Typical Flavor Note: Honey,"[2]; 1 mg, score 0-5",.1
same,Non-Tobacco Typical Flavor Note: Licorice,"[2]; 1 mg, score 0-5",.0
same,Non-Tobacco Typical Flavor Note: Minty,"[2]; 1 mg, score 0-5",.0
same,Non-Tobacco Typical Flavor Note: Spicy,"[2]; 1 mg, score 0-5",.1
same,Non-Tobacco Typical Flavor Note: Vanilla,"[2]; 1 mg, score 0-5",.3
same,Tobacco Typical Flavor Note: Animalic,"[2]; 1 mg, score 0-5",0.1
same,Tobacco Typical Flavor Note: Black Tea,"[2]; 1 mg, score 0-5",0.0
same,Tobacco Typical Flavor Note: Earthy,"[2]; 1 mg, score 0-5",0.3
same,Tobacco Typical Flavor Note: Haylike,"[2]; 1 mg, score 0-5",1.1
same,Tobacco Typical Flavor Note: Roasted,"[2]; 1 mg, score 0-5",0.7
same,Tobacco Typical Flavor Note: Smoky,"[2]; 1 mg, score 0-5",0.0
same,Tobacco Typical Flavor Note: Tobacco,"[2]; 1 mg, score 0-5",3.9
same,Tobacco Typical Flavor Note: Woody,"[2]; 1 mg, score 0-5",1.3
same,Solubility in solvents versus humectants,Solubility in solvents; alcohol or DMSO versus propylene glycol,higher in the solvents than in humectants such as propylene glycol
same,Solubility,"Solubility in solvents; alcohol, such as ethanol, and DMSO",readily soluble
same,Stability in the aerosol,[3]; high temperatures in rods of combustible aerosol provision systems,stable molecule and is not transformed and does not react with other chemicals in the aerosol
same,Migration within the delivery system or packaging during storage,[3],does not migrate
same,Overall flavor conclusion of smoking and sniffing analysis,[4],provides a cooling sensation without menthol flavor
CNC(=O)C(C)(C(C)C)C(C)C [WS-23],Menthol-Family Flavor Intensity,[1]; 1.0 mg cooling agent,2.2
same,Tobacco Taste Intensity,[1]; 1.0 mg cooling agent,3.9
same,Non-Tobacco Typical Flavor Note: Alcoholic,"[2]; 1 mg, score 0-5",.0
same,Non-Tobacco Typical Flavor Note: Cacao,"[2]; 1 mg, score 0-5",.1
same,Non-Tobacco Typical Flavor Note: Caramel,"[2]; 1 mg, score 0-5",.1
same,Non-Tobacco Typical Flavor Note: Citrus,"[2]; 1 mg, score 0-5",.2
same,Non-Tobacco Typical Flavor Note: Floral,"[2]; 1 mg, score 0-5",.1
same,Non-Tobacco Typical Flavor Note: Fruity,"[2]; 1 mg, score 0-5",.2
same,Non-Tobacco Typical Flavor Note: Honey,"[2]; 1 mg, score 0-5",.1
same,Non-Tobacco Typical Flavor Note: Licorice,"[2]; 1 mg, score 0-5",.0
same,Non-Tobacco Typical Flavor Note: Minty,"[2]; 1 mg, score 0-5",.7
same,Non-Tobacco Typical Flavor Note: Spicy,"[2]; 1 mg, score 0-5",.0
same,Non-Tobacco Typical Flavor Note: Vanilla,"[2]; 1 mg, score 0-5",.3
same,Tobacco Typical Flavor Note: Animalic,"[2]; 1 mg, score 0-5",0.1
same,Tobacco Typical Flavor Note: Black Tea,"[2]; 1 mg, score 0-5",0.1
same,Tobacco Typical Flavor Note: Earthy,"[2]; 1 mg, score 0-5",0.3
same,Tobacco Typical Flavor Note: Haylike,"[2]; 1 mg, score 0-5",0.9
same,Tobacco Typical Flavor Note: Roasted,"[2]; 1 mg, score 0-5",0.7
same,Tobacco Typical Flavor Note: Smoky,"[2]; 1 mg, score 0-5",0.1
same,Tobacco Typical Flavor Note: Tobacco,"[2]; 1 mg, score 0-5",3.5
same,Tobacco Typical Flavor Note: Woody,"[2]; 1 mg, score 0-5",1.0
same,Non-Tobacco Typical Flavor Note: Minty,"[2]; 1 mg, score 0-5, listed as WS23",0.7
same,Overall flavor conclusion of smoking and sniffing analysis,[4],"very low, but detectable minty/menthol flavor"
